Literature values in patent US7910613B2, “2-acylaminothiazole derivatives” (H. Lundbeck A/S, priority 2004, dated 2011).
Read-outs that look alike come from different tables or passages of the source.

Columns and labels:
[1] = system: unilateral 6-OHDA (6-hydroxydopamine) lesioned mice and rats; conditions: elicited by a subtreshold dose of levodopa
mice [2] = conditions: for total immobility time: mouse tail suspension test
mice [3] = conditions: mouse forced swimming test
[4] = system: MPTP treated mice and 6-OHDA-lesioned rats
[5] = mice previously screened for having high immobility time

Row | SMILES | contralateral rotations [1] | immobility (mice [2]; [5]) | total immobility time (mice [2]) | immobility time (mice [3]) | further results
1 | Nc1nc2c(cnn2CCc2ccccc2)c2nc(-c3ccco3)nn12 [SCH58261, 2-(2-furanyl)-7-(2-phenylethyl)-7H-pyrazolo[4,3-e][1,2,4]triazolo[1,5-c]pyrimidin-5-amine] | enhance contralateral rotations | reduce immobility | reduced the total immobility time | – | immobility (mice [2]; mice selectively bred for their helplessness): reduced immobility
2 | Nc1nc(NCCc2ccc(O)cc2)nc2nc(-c3ccco3)nn12 [ZM241385, 4-(2-[7-amino-2-(2-furyl)[1,2,4]triazolo[2,3-a][1,3,5]triazin-5-ylamino]-ethyl)phenol] | – | reduce immobility | – | – | –
3 | Nc1nc(Cl)nc2c1ncn2[C@@H]1O[C@H](CO)[C@@H](O)[C@H]1O [2-chloroadenosine] | – | – | – | increased immobility time | –
4 | CCn1c(=O)c2c(nc(/C=C/c3ccc(OC)c(OC)c3)n2C)n(CC)c1=O [KW-6002, 8-[(1E)-2-(3,4-dimethoxyphenyl)ethenyl]-1,3-diethyl-3,7-dihydro-7-methyl-1H-purine-2,6-dione] | enhance contralateral rotations | – | reduced the total immobility time | – | functional loss of dopaminergic nerve terminals in the striatum [4]: prevented functional loss of dopaminergic nerve terminals in the striatum; gliosis normally induced around degenerating neurons [4]: prevented gliosis; motor impairment induced by MPTP (non-human primates): significantly improves motor impairment; dyskinesias (non-human primates; MPTP): without causing dyskinesias
5 | Nc1ncnc2c1ncn2[C@@H]1O[C@H](CO)[C@@H](O)[C@H]1O [adenosine] | – | – | – | increased immobility time | –
